Data published in patent EP3238720A1, “ANTI-METHANOGENIC COMPOSITIONS AND USES THEREOF” (DSM IP Assets B.V., priority 2016, dated 2017).
Where two headings read alike, the source gives them in different places.

What was measured:
[1] = molecular target: T1, MCR (MCR-I) (Methanothermobacter marburgensis, UniProt P11558+P11560+P11562); assay type: biochemical, M. marburgensis; details: 15 min at room temperature
[2] = molecular target: T1, MCR (MCR-I); assay type: biochemical, M. marburgensis; details: for Methane reduction: 0.1 µM 3-NOP vs no inhibitor
[3] = test system: Methanobrevibacter millerae; assay: Growth/methane production of methanogen cultures; assay type: cell-based; details: after 2 days, maintained over 12 days
Experimental: (§1) The methanogens outlined in table 3 were grown in 5 mL of the respective culture medium at 37°C in 15-mL Hungate tubes sealed with butyl rubber septum and aluminum seals. The 8 mL gas phase was 80% H2/20% CO2 at 2 x 10^5 Pa pressure. In the case of M. stadtmanae and M. barkeri H2 and methanol (100 mM) was the energy source. Methanogens growth was followed by CH4 production using a flame ionization-detector GC (0.5 ml of gas from headspace, manual injection in the GC (HP Hewlett 5890, Packard Series II, Waldbronn, Germany) using a 1 mL Sample-Lock® syringe (Hamilton, Nevada, USA). The concentration of CH4 was determined using a standard curve generated by injecting different volumes of 99.9 % pure CH4 prior to and after the injection of samples. Three consecutive 5 mL batches of incubations were conducted. In each batch the following treatments were used in triplicate: (i) blanks, only media; (ii) controls, cultures in the absence of inhibitor; (iii) 3-NOP added to a final concentration of 0.5 µM, 5 µM, 50 µM, 100 µM, 250 µM and 500 µM. 3-NOP was added on day 2 after culture inoculation with 0.5 mL of an actively growing culture. The growth was measured over 12 days every 2 days coinciding with new pressurization of headspace to 2 bar with 80:20 H2:CO2 gas mixture. […] Table 3: Methanogens

[4] = test system: Methanobacterium bryantii; assay: Growth/methane production of methanogen cultures; assay type: cell-based; details: after 2 days, maintained over 12 days
Experimental: as §1

[5] = test system: Methanothermobacter wolfeii; assay: Growth/methane production of methanogen cultures; assay type: cell-based; details: after 2 days, maintained over 12 days
Experimental: as §1

[6] = test system: Methanomicrobium mobile; assay: Growth/methane production of methanogen cultures; assay type: cell-based; details: after 2 days, maintained over 12 days
Experimental: as §1

[7] = test system: Methanobrevibacter smithii; assay: Growth/methane production of methanogen cultures; assay type: cell-based; details: after 2 days, maintained over 12 days
Experimental: as §1

[8] = test system: Methanosphaera stadtmanae; assay: Growth/methane production of methanogen cultures; assay type: cell-based; details: H2 and methanol (100 mM), after 2 days, maintained over 12 days
Experimental: as §1

[9] = test system: Methanosarcina barkeri; assay: Growth/methane production of methanogen cultures; assay type: cell-based; details: H2 and methanol (100 mM), after 2 days, maintained over 12 days
Experimental: as §1

T1 sequence (P11558 2-550 limits assumed): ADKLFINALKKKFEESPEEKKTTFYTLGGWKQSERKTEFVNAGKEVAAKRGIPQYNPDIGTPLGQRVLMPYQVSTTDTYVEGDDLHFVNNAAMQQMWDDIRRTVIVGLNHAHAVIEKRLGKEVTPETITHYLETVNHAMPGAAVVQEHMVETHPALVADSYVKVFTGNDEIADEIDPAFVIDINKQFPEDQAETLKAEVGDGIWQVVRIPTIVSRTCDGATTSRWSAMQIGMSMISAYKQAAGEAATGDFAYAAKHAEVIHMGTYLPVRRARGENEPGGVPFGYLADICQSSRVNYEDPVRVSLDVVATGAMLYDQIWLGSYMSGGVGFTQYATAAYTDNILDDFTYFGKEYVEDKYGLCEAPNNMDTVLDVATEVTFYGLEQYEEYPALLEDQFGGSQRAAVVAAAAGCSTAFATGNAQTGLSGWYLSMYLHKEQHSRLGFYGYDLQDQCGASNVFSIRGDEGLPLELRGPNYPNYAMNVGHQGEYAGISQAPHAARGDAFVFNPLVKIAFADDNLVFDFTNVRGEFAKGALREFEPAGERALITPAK
T1 sequence (P11560 2-443 limits assumed): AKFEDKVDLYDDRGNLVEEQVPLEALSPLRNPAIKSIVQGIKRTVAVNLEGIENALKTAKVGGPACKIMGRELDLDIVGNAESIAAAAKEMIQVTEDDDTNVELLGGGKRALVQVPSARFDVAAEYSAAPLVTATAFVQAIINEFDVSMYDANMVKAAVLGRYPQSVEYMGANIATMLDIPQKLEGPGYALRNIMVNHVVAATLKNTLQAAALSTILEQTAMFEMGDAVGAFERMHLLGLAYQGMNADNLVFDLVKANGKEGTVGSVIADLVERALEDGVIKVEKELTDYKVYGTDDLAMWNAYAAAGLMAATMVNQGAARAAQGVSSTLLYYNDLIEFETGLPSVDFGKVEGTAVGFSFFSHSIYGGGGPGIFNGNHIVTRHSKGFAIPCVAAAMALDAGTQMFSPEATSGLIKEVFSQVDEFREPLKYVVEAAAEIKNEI
T1 sequence (P11562 2-249 limits assumed): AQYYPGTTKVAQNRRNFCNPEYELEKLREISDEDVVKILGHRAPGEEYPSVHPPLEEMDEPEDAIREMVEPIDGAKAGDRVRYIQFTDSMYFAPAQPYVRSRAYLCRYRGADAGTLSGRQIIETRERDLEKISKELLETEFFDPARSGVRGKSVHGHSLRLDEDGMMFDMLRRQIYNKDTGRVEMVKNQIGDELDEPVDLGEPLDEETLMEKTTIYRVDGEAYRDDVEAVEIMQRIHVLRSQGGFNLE

Structure (SMILES): O=[N+]([O-])OCCCO [3-NOP, 3-Nitrooxypropanol]
- MCR activity was reduced ([1]; 10 µM of 3-NOP): 50%
- inhibition of the enzyme ([1]; > 30 µM of 3-NOP): almost complete inhibition
- reduces the methane concentration and thus the MCR activity ([2]; 0.1 µM 3-NOP): about 50%
- Methane reduction ([2]; 3min): -28%
- Methane reduction ([2]; 6min): -38%
- Methane reduction ([2]; 9min): -47%
- Methane concentration ([2]; 0.1 µM 3-NOP, 3min, no inhibitor 0.095): 0.068 µM
- Methane concentration ([2]; 0.1 µM 3-NOP, 6min, no inhibitor 0.132): 0.082 µM
- Methane concentration ([2]; 0.1 µM 3-NOP, 9min, no inhibitor 0.163): 0.086 µM
- lowest concentration of 3-NOP able to significantly decrease the growth/ methane production (>50%) [3]: 2.5 µM
- lowest concentration of 3-NOP able to significantly decrease the growth/ methane production (>50%) [4]: 1 µM
- lowest concentration of 3-NOP able to significantly decrease the growth/ methane production (>50%) [5]: < 1 µM
- lowest concentration of 3-NOP able to significantly decrease the growth/ methane production (>50%) [6]: 50 µM
- lowest concentration of 3-NOP able to significantly decrease the growth/ methane production (>50%) [7]: 2.5 µM
- lowest concentration of 3-NOP able to significantly decrease the growth/ methane production (>50%) [8]: 5 µM
- lowest concentration of 3-NOP able to significantly decrease the growth/ methane production (>50%) [9]: 50 µM
